The values that follow come from patent US7179921B2, “Indoline and tetrahydro-quinolines as prodrugs for tumour treatment” (School of Pharmacy, University of London, priority 2001, dated 2007).

Broadly, the IC50 is the point on the concentration scale where inhibition reaches its midpoint. High values mean lower potency, low ones higher potency.

Marks after values point to notes of the source that are not given here.

The data set has as its system Chinese Hamster Ovary (CHO) cell. Description: Cell culture based cytotoxicity measurement (MTT) with and without rat liver microsomal activation. To be noted: for IC50: Cricetulus griseus, CHO, cells incubated 24 hours, MTT, mean±sd, three experiments. As for the experimental part: Test compound activation by CYP enzymes was carried out using NADPH supplemented rat liver microsomes. Incubation mixtures comprised microsomal protein (1 mg/ml), reduced-nicotinamide adenine dinucleotide phosphate (NADPH,10 mM) and phosphate buffer (pH7.4, 100 mM). Test compound (0.01–100 μM final concentration) in DMSO (20 μl ) was added to the microsomal incubation mixtures (0.5 ml) and incubated for 60 min at 37C. Control incubates contained test compound and microsomal incubation mixture terminated at 0 time. All incubations were terminated by addition of an equal volume of ice-cold acetonitrile and microfuged for 3 min. Aliquots of the supernatant were added to cells in culture.
Chinese Hamster Ovary (CHO) cell were grown in MEM supplemented with 10% dialysed FBS and G418 (400 μg/ml). All cells were seeded at an initial density of 1000 cells/well in 96-well-plates, incubation at 37° C. for 24 hours. Aliquots (0.1 ml) of the test compound/microsomal/acetonitrile supernatnant was then added to the CHO cells. Cells were then incubated for 24 hours at 37° C., 5% CO2. After this time period MTT (50 μl; 2 mg/ml stock solution) was added to each well and cells were incubated for a further 4 hours. During this time period MTT, a hydrogen acceptor tetrazolium salt, is reduced to formazan dye by mitochondrial dehydrogenase of viable cells. The media was aspirated from cells and DMSO (100 μl/well) added to solubilise the is coloured formazan dye. Absorbance of the formazan dye in the 96-well-plates was then determined at 550 nm. The effect of microsomal activation by the test compound on the arrest of CHO cell growth could be determined by comparing the IC50 (concentration that inhibited cell growth by 50%) with and without microsomal incubation.
Effect of compound 3.5 and its metabolism (activation) product on the survival of Chinese hamster ovary cells in culture. Cells were incubated for 24 hours with supernatants from reaction mixtures of compound 3.5 with NADPH fortified rat liver microsomes. […] Values are expressed as the mean±sd for three experiments. […]
(Microsomes from liver hold many membrane-bound enzymes, among them those of drug oxidation.)

Turning to `COc1ccc2[nH]c(C(=O)N3CC(CCl)c4ccccc43)cc2c1` (stereo not drawn) [compound 3.5, 3-(Chloromethyl)-1--[(5-methoxyindol-2-yl)carbonyl]indoline], the “AF = activity factor, ratio of IC50 cytotoxicity values obtained for ± compound activation” value (CHO cells, IC50 −activation / IC50 +activation) was 42.4*. The 50% inhibitory concentration (IC50) worked out at 5510 ± 230 nM (control incubate terminated at 0 time (no microsomal activation)) and 130 ± 30 nM (supernatant after 60 min incubation with NADPH supplemented rat liver microsomes).
